Values of other authors in US20030162237A1, “Methods of monitoring enzyme activity” (priority 2000, published 2003).
Where two headings read alike, the source gives them in different places.

Tests used:
[1] = system: human tumor cell lines
[2] = system: stem-loop IIB RNA; details: phosphorylated by PKC or HMK, versus unphosphorylated H6Rev

Compound	expression of malignancy suppressor genes [1]	binds more tightly to stem-loop IIB RNA than unphosphorylated H6Rev [2]	binds more tightly to stem-loop IIB RNA than unphosphorylated H6Rev ([2]; listed as H6Rev) [fold]
Nc1ncn([C@H]2C[C@H](O)[C@@H](CO)O2)c(=O)n1 [5-aza-2′-deoxycytidine]	reactivate the expression of many of the malignancy suppressor genes		
P-H6Rev: HIV type-1 Rev protein H6Rev (accession number P04325) phosphorylated by PKC or HMK		ligand 7-fold more tightly than H6Rev.	7
